Measured values from US20230082430A1 (C4 Therapeutics, Inc., priority 2019, published 2023).

system: NCIH929.1 cells; assay: Cell viability assay for Table 2 (CellTiter-Glo 2.0, ATP quantification, 96 hr); assay type: cell-based; conditions: 96 h, NCIH929.1 cell viability, 96 hr, top concentration 1 μM, 14 points half log titration; read-out: IC50
Description: Cell Viability Assay for Table 2
(§1) CellTiter-Glo® 2.0 Assay was purchased from Promega (Madison, Wis., USA). NCIH929.1 cell line was purchased from ATCC (Manassas, Va., USA). Cell culture flasks and 384-well microplates were acquired from VWR (Radnor, Pa., USA).

SMILES | IC50
CC1(C(=O)N2CCN(C3(c4ccc(Cc5ccc6c7c(cccc57)C(=O)N6C5CCC(=O)NC5=O)cc4)CC3)CC2)CCC1 (centres unmarked) [Compound 263, 3-[6-(4-{1-[4-(1-Methyl-cyclobutanecarbonyl)-piperazin-1-yl]-cyclopropyl}-benzyl)-2-oxo-2H-benzo[cd]indol-1-yl]-piperidine-2,6-dione] | < 1 nM
O=C1CCC(N2C(=O)c3cccc4c(Cc5ccc(C6(N7CCN(c8ccccc8F)CC7)CC6)cc5)ccc2c34)C(=O)N1 (centres unmarked) [Compound 264, 3-[6-(4-{1-[4-(2-Fluoro-phenyl)-piperazin-1-yl]-cyclopropyl}-benzyl)-2-oxo-2H-benzo[cd]indol-1-yl]-piperidine-2,6-dione] | < 1 nM
CN1CC2CC(C(=O)N3CCC(n4cc(Cc5ccc6c7c(cccc57)C(=O)N6C5CCC(=O)NC5=O)cn4)CC3)(C2)C1 (centres unmarked) [Compound 265, 3-(6-((1-(1-(3-methyl-3-azabicyclo[3.1.1]heptane-1-carbonyl)piperidin-4-yl)-1H-pyrazol-4-yl)methyl)-2-oxobenzo[cd]indol-1(2H)-yl)piperidine-2,6-dione] | < 1 nM
CC(C)(C)OC(=O)N1CCC(n2cc(C(O)c3ccc4c5c(cccc35)C(=O)N4C3CCC(=O)NC3=O)cn2)CC1 (centres unmarked) [Compound 266, tert-butyl 4-[4-[[1-(2,6-dioxo-3-piperidyl)-2-oxo-benzo[cd]indol-6-yl]-hydroxy-methyl]pyrazol-1-yl]piperidine-1-carboxylate] | < 1 nM
O=C1CCC(N2C(=O)c3cccc4c(Cc5ccc(CN6CCC7(CCCO7)CC6)cc5)ncc2c34)C(=O)N1 (centres unmarked) [Compound 267, 3-[24-[[4-(1-oxa-8-azaspiro[4.5]decan-8-ylmethyl)phenyl]methyl]-28-oxo-31,34-diazatricyclododeca-,2(22),7(23),21(25),24(31)-pentaen-34-yl]piperidine-2,6-dione] | < 1 nM
O=C1CCC(N2C(=O)c3cccc4c(Cc5ccc(CN6CCOCC6)nc5)ccc2c34)C(=O)N1 (centres unmarked) [Compound 269, 3-[6-[[6-(morpholinomethyl)-3-pyridyl]methyl]-2-oxo-benzo[cd]indol-1-yl]piperidine-2,6-dione] | < 1 nM
CC1(C(=O)N2CCC(c3cnn(Cc4ccc5c6c(cccc46)C(=O)N5C4CCC(=O)NC4=O)c3)CC2)CCC1 (centres unmarked) [Compound 270, 3-[6-[[4-[1-(1-methylcyclobutanecarbonyl)-4-piperidyl]pyrazol-1-yl]methyl]-2-oxo-benzo[cd]indol-1-yl]piperidine-2,6-dione] | < 1 nM
CC1(C(=O)N2CCC(C)(n3cc(Cc4ccc5c6c(cccc46)C(=O)N5C4CCC(=O)NC4=O)cn3)CC2)CCN(c2ccccn2)CC1 (centres unmarked) [Compound 271, 3-(6-((1-(4-methyl-1-(4-methyl-1-(pyridin-2-yl)piperidine-4-carbonyl)piperidin-4-yl)-1H-pyrazol-4-yl)methyl)-2-oxobenzo[cd]indol-1(2H)-yl)piperidine-2,6-dione] | < 1 nM
CC1(n2cc(Cc3ccc4c5c(cccc35)C(=O)N4C3CCC(=O)NC3=O)cn2)CCN(C(=O)C2CCN(c3ccccn3)CC2)CC1 (centres unmarked) [Compound 272, 3-[6-[[1-[4-methyl-1-[1-(2-pyridyl)piperidine-4-carbonyl]-4-piperidyl]pyrazol-4-yl]methyl]-2-oxo-benzo[cd]indol-1-yl]piperidine-2,6-dione] | < 1 nM
O=C1CCC(N2C(=O)c3cccc4c(Oc5ccc(CN6CCOCC6)cc5)ccc2c34)C(=O)N1 (centres unmarked) [Compound 273, 3-(6-(4-(morpholinomethyl)phenoxy)-2-oxobenzo[cd]indol-1(2H)-yl)piperidine-2,6-dione] | < 100 nM
CC1(CN2CCC(n3cc(Cc4ccc5c6c(cccc46)C(=O)N5C4CCC(=O)NC4=O)cn3)CC23CC3)CCC1 (centres unmarked) [Compound 275, 3-[6-[[1-[4-[(1-methylcyclobutyl)methyl]-4-azaspiro[2.5]octan-7-yl]pyrazol-4-yl]methyl]-2-oxo-benzo[cd]indol-1-yl]piperidine-2,6-dione] | < 1 nM
CC(C)(C)OC(=O)N1CCC(c2ccc3c4c(cccc24)C(=O)N3C2CCC(=O)NC2=O)CC1 (centres unmarked) [Compound 276, tert-butyl 4-[1-(2,6-dioxo-3-piperidyl)-2-oxo-benzo[cd]indol-6-yl]piperidine-1-carboxylate] | > 999 nM
O=C1CCC(N2C(=O)c3cccc4c(Cc5ccccc5)ccc2c34)C(=O)N1 (centres unmarked) [Compound 277, 3-(6-benzyl-2-oxo-benzo[cd]indol-1-yl)piperidine-2,6-dione] | < 1 nM
O=C1CCC(N2C(=O)c3cccc4c(Cc5ccc(CN6CCOCC6)c(F)c5)ccc2c34)C(=O)N1 (centres unmarked) [Compound 278, 3-[6-{[3-fluoro-4-(morpholinomethyl)phenyl]methyl}-2-oxo-benzo[cd]indol-1-yl]piperidine-2,6-dione] | < 1 nM
N#Cc1ccc(N2CCN(Cc3ccc(Cc4ccc5c6c(cccc46)C(=O)N5C4CCC(=O)NC4=O)cn3)CC2)c(F)c1 (centres unmarked) [Compound 279, 4-[4-[[5-[[1-(2,6-dioxo-3-piperidyl)-2-oxo-benzo[cd]indol-6-yl]methyl]-2-pyridyl]methyl]piperazin-1-yl]-3-fluoro-benzonitrile] | < 1 nM
Cc1cc(Cc2ccc3c4c(cccc24)C(=O)N3C2CCC(=O)NC2=O)ccc1CN1CCN(c2ccccc2F)CC1 (centres unmarked) [Compound 286, 3-[6-[[4-[[4-(2-fluorophenyl)piperazin-1-yl]methyl]-3-methyl-phenyl]methyl]-2-oxo-benzo[cd]indol-1-yl]piperidine-2,6-dione] | < 1 nM
CN(C)C1(C(=O)N2CCC(n3cc(Cc4ccc5c6c(cccc46)C(=O)N5C4CCC(=O)NC4=O)cn3)CC2)CCC1 (centres unmarked) [Compound 287, 3-[6-[[1-[1-[1-(dimethylamino)cyclobutanecarbonyl]-4-piperidyl]pyrazol-4-yl]methyl]-2-oxo-benzo[cd]indol-1-yl]piperidine-2,6-dione] | < 1 nM
O=C1CCC(N2C(=O)c3cccc4c(Cc5cnn(C6CCN(C7CC8(CCC8)C7)CC6)c5)ccc2c34)C(=O)N1 (centres unmarked) [Compound 288, 3-[2-oxo-6-[[1-(1-spiro[3.3]heptan-2-yl-4-piperidyl)pyrazol-4-yl]methyl]benzo[cd]indol-1-yl]piperidine-2,6-dione] | < 1 nM
CC1(C(=O)N2CCC(n3cc(Cc4cnc5c6c(cccc46)C(=O)N5C4CCC(=O)NC4=O)cn3)CC2)CCC1 (centres unmarked) [Compound 289, 3-[20-[[1-[1-(1-methylcyclobutanecarbonyl)-4-piperidyl]pyrazol-4-yl]methyl]-26-oxo-30,35-diazatricyclododeca-1,3(18),5(20),17(21),22(30)-pentaen-35-yl]piperidine-2,6-dione] | < 100 nM
CC1(C(=O)N2CCC(c3cccc(Cc4ccc5c6c(cccc46)C(=O)N5C4CCC(=O)NC4=O)c3)CC2)CCC1 (centres unmarked) [Compound 290, 3-[6-[[3-[1-(1-methylcyclobutanecarbonyl)-4-piperidyl]phenyl]methyl]-2-oxo-benzo[cd]indol-1-yl]piperidine-2,6-dione] | < 1 nM
CC(C)(C)OC(=O)N1CC2CC(C(=O)N3CCC(n4cc(Cc5ccc6c7c(cccc57)C(=O)N6C5CCC(=O)NC5=O)cn4)CC3)(C2)C1 (centres unmarked) [Compound 292, tert-butyl 1-(4-(4-((1-(2,6-dioxopiperidin-3-yl)-2-oxo-1,2-dihydrobenzo[cd]indol-6-yl)methyl)-1H-pyrazol-1-yl)piperidine-1-carbonyl)-3-azabicyclo[3.1.1]heptane-3-carboxylate] | < 1 nM
CN1C(=O)CCC(N2C(=O)c3cccc4c(Cc5cnn(C6CCN(CC7(C)CCC7)CC6)c5)ccc2c34)C1=O (centres unmarked) [Compound 294, 1-methyl-3-(6-((1-(1-((1-methylcyclobutyl)methyl)piperidin-4-yl)-1H-pyrazol-4-yl)methyl)-2-oxobenzo[cd]indol-1(2H)-yl)piperidine-2,6-dione] | < 100 nM

system: NCIH929.1 cells; assay: Cell viability assay for Table 1 (CellTiter-Glo 2.0, ATP quantification, 96 hr); assay type: cell-based; conditions: NCIH929.1 cell viability, top concentration 1 μM, 10 points half log titration, cytostatic control
Method: Example 171. Cell Viability Assay for Table 1
as §1, with “RPMI 1640 medium, fetal bovine serum (FBS) and 2-mercaptoethanol were purchased from Gibco (Grand Island, N.Y., USA). CellTiter-Glo®” for “CellTiter-Glo®”
At the same day of compound treatment, CellTiter-Glo® 2.0 was added to a plate with cells treated in the absence of the test compound to establish Cytostatic control value (Gm).

SMILES | GI50
CC(C)(C)OC(=O)N1CCC(n2cc(Cc3ccc4c5c(cccc35)C(=O)N4C3CCC(=O)NC3=O)cn2)CC1 (centres unmarked) [Compound 2, tert-Butyl 4-(4-((1-(2,6-Dioxopiperidin-3-yl)-2-oxo-1,2-dihydrobenzo[cd]indol-6-yl)methyl)-1H-pyrazol-1-yl)piperidine-1-carboxylate] | < 1 nM
O=C1CCC(N2C(=O)c3cccc4c(Cc5cnn(C6CCN(C(=O)C78C9C%10C%11C9C7C%11C%108)CC6)c5)ccc2c34)C(=O)N1 (centres unmarked) [Compound 3, 3-(6-((1-(1-(Cubane-1-carbonyl)piperidin-4-yl)-1H-pyrazol-4-yl)methyl)-2-oxobenzo[cd]indol-1(2H)-yl)piperidine-2,6-dione] | < 1 nM
CC1(C(=O)N2CCC(n3cc(Cc4ccc5c6c(cccc46)C(=O)N5C4CCC(=O)NC4=O)cn3)CC2)CCC1 (centres unmarked) [Compound 4, 3-(6-((1-(1-(1-Methylcyclobutane-1-carbonyl)piperidin-4-yl)-1H-pyrazol-4-yl)methyl)-2-oxobenzo[cd]indol-1(2H)-yl)piperidine-2,6-dione] | < 1 nM
CC1(n2cc(Cc3ccc4c5c(cccc35)C(=O)N4C3CCC(=O)NC3=O)cn2)CCN(C(=O)C23C4C5C6C4C2C6C53)CC1 (centres unmarked) [Compound 18, 3-(6-((1-(1-(Cubane-1-carbonyl)-4-methylpiperidin-4-yl)-1H-pyrazol-4-yl)methyl)-2-oxobenzo[cd]indol-1(2H)-yl)piperidine-2,6-dione] | < 1 nM
